The results in this text go back to US20050059072A1, “Selective modulation of TLR gene expression” (3M Innovative Properties Company, priority 2003, published 2005).

“Also recorded” adds a separate entry of the source.

The test system of assay [1] is TLR3 gene. Kind of assay: TLR3 gene expression in PBMCs (real-time PCR). The format is cell-based, Human. As to conditions: in vitro (FIG. 1, FIG. 2). As to the method:
(§1) For some experiments, Peripheral Blood Mononuclear Cells (PBMCs) were isolated from donors by Ficol gradient centrifugation. For other experiments, leukophoresed mononuclear cells were obtained from AllCells, LLC (Berkeley, Calif.). Monocyte derived macrophages and dendritic cells were prepared from PBMCs using positive selection of CD14+ cells with Miltenyi micro beads (Miltenyi Biotec Inc., Auburn, Calif.). Dendritic cells were differentiated in RPMI 1640 with 10% fetal bovine serum, using 33 ng/mL IL4 and 66 ng/mL GM-CSF, and macrophages were differentiated using 25 ng/mL M-CSF, for seven days at 37° C.
(§2) IRM compounds were prepared as 1000× stocks in DMSO. PBMCs were diluted to approximately 3.0×10^6 cells per mL in Ex-Vivo 20 media, and 1.0 mL was distributed per well in a 96 deep well plate. Cells were allowed to equilibrate at 37° C. for 1 hour, then IRM compound was added to the culture.
(§3) At each indicated time point, cells were harvested as follows. PBMCs and dendritic cells were harvested by centrifuging the plate at 1500 RPM, 360 RCF, at 4° C. in a Qiagen SIGMA centrifuge (Qiagen Inc., Valencia, Calif.). The media was then vacuum aspirated and 400 μL of RLT buffer with 1.0% 2-mercaptoethanol was added to each well. Macrophage cultures were harvested by aspiration of the media and direct addition of the RLT buffer to the well. The total RNA was purified using a semi-automated procedure on the Qiagen BioRobot 8000 (Qiagen Inc., Valencia, Calif.), with an incorporated DNase digestion step.
(§4) Purified total RNA was transferred to Costar 3565 plate and the optical density at 260 nm and 280 nm was read using a Molecular Devices SpectroMax 384 Plus (Molecular Devices Corp., Sunnyvale, Calif.). The RNA was then ethanol precipitated, washed, and the pellet re-suspended in 10 μL of water. cDNA was made with the Invitrogen Superscript II Kit (Invitrogen Corp., Carlsbad, Calif.) using random priming and 2-3 μg of total RNA. PCR was performed using an ABI 7900 (Applied Biosystems Corp., Foster City, Calif.), and the 384 well Microfluidic Card with Taqman™ chemistry, and the reactions were standardized using 2 ng/μL cDNA in the master mix. Cycling conditions were 50° C. for 10 minutes, 95° C. for 2 minutes, then 35 cycles of 95° C. for 30 seconds, and 60° C. for 1 minute. Data was analyzed using SDS 2.0 software (Applied Biosystems, Inc.) using a threshold value of 0.1. The results were imported into Excel and the expression fold changes were calculated using the ΔΔCt method, (User Bulletin #2, PE Applied BioSystems, Inc.). Normalization of signals was performed using the housekeeping gene, GAPDH.

A further assay deals with TLR5 gene. Briefly: TLR5 gene expression in macrophages (real-time PCR). The format is cell-based, Human. As to conditions: macrophages (FIG. 6). The protocol:
(§5) For some experiments, Peripheral Blood Mononuclear Cells (PBMCs) were isolated from donors by Ficol gradient centrifugation. For other experiments, leukophoresed mononuclear cells were obtained from AllCells, LLC (Berkeley, Calif.). Monocyte derived macrophages and dendritic cells were prepared from PBMCs using positive selection of CD14+ cells with Miltenyi micro beads (Miltenyi Biotec Inc., Auburn, Calif.).
as §2
(§6) At each indicated time point, cells were harvested as follows. […]
(§7) The RNA was then ethanol precipitated, washed, and the pellet re-suspended in 10 μL of water. cDNA was made with the Invitrogen Superscript II Kit (Invitrogen Corp., Carlsbad, Calif.) using random priming and 2-3 μg of total RNA. […] Data was analyzed using SDS 2.0 software (Applied Biosystems, Inc.) using a threshold value of 0.1. The results were imported into Excel and the expression fold changes were calculated using the ΔΔCt method, (User Bulletin #2, PE Applied BioSystems, Inc.). […]

For a further assay, the system named is TLR8 gene. Kind of assay: TLR8 gene expression in PBMCs (real-time PCR). As to conditions: in vitro (FIG. 1, FIG. 4). The format is cell-based, Human. The protocol: as §1, §2, §3, §4
For assay [2], the system named is TLR6. Briefly: TLR6 gene expression in dendritic cells (real-time PCR). The format is cell-based, Human. As to the method: as §1
(§8) IRM compounds were prepared as 1000× stocks in DMSO. PBMCs were diluted to approximately 3.0×10^6 cells per mL in Ex-Vivo 20 media, and 1.0 mL was distributed per well in a 96 deep well plate. Cells were allowed to equilibrate at 37° C. for 1 hour, then IRM compound was added to the culture. […]
(§9) Purified total RNA was transferred to Costar 3565 plate and the optical density at 260 nm and 280 nm was read using a Molecular Devices SpectroMax 384 Plus (Molecular Devices Corp., Sunnyvale, Calif.). […] Data was analyzed using SDS 2.0 software (Applied Biosystems, Inc.) using a threshold value of 0.1. The results were imported into Excel and the expression fold changes were calculated using the ΔΔCt method, (User Bulletin #2, PE Applied BioSystems, Inc.). […]

The test system of assay [3] is TLR3 gene. Kind of assay: TLR3 gene expression in macrophages (real-time PCR). The format is cell-based, Human. Particulars: macrophages (FIG. 5). As to the method:
as §5, §2, §3
as §7, with “RNA. PCR was performed using an ABI 7900 (Applied Biosystems Corp., Foster City, Calif.), and the 384 well Microfluidic Card with Taqman™ chemistry, and the reactions were standardized using 2 ng/μL cDNA in the master mix.” for “RNA.”

For assay [4], the system named is TLR7. Kind of assay: TLR7 gene expression in dendritic cells (real-time PCR). The format is cell-based, Human. As to the method: as §1, §8, §9
Assay [5] deals with TLR7 gene. Kind of assay: TLR7 gene expression in macrophages (real-time PCR). Particulars: macrophages (FIG. 7). The format is cell-based, Human. As to the method:
as §5, §2, §6, §7

The next assay concerns TLR1. Briefly: TLR1 expression in actinic keratosis lesion biopsies, phase II study. The format is in vivo, human. As to conditions: AK lesion, 5% cream (ALDARA) 3 times per week for 4 weeks; highest response time point vs sun-unexposed non-AK skin. The text has this: (§10) A phase II, double-blind, vehicle-controlled, randomized, parallel group study included 17 male subjects with histologically confirmed actinic keratosis (AK). Eligible subjects were randomized to receive either IRM5 formulated as a 5% cream (ALDARA, 3M Pharmaceuticals, St. Paul, Minn.) or vehicle cream in a 3:1 ratio. Study subjects had at least five clinically typical, discrete, visible AK lesions within a 25 cm^2 area on the balding scalp that were suitable for shave biopsies.
(§11) Subjects applied 1 sachet (250 mg) of study cream to the treatment area 3 times per week for 4 weeks. Each dose of study cream was applied prior to normal sleeping hours at approximately the same time on each dosing day and was to remain on the skin for approximately 8 hours.
(§12) Each subject could have up to 8 shave biopsies performed. Biopsy samples obtained at the treatment initiation visit and all subsequent visits were designated for gene expression analysis. At the treatment initiation visit (T=0), an intact lesion in the treatment area was biopsied (sample series A) to establish a baseline for AK gene expression. […] The sun-unexposed area biopsy was used to establish baseline control for gene expression. […]
(§13) RNA from each sample was extracted and expression of TLR1, TLR3, TLR6, TLR7, TLR8, TLR9, and TLR10 was analyzed as described in Example 1. […]

In assay [6] the test system is TLR6. Briefly: TLR6 expression in actinic keratosis lesion biopsies, phase II study. The format is in vivo, human. Particulars: AK lesion, 5% cream (ALDARA) 3 times per week for 4 weeks; highest response time point vs sun-unexposed non-AK skin.
Source text: as §10, §11, §12, §13

A further assay concerns TLR3. Kind of assay: TLR3 expression in actinic keratosis lesion biopsies, phase II study. The format is in vivo, human. As to conditions: AK lesion, 5% cream (ALDARA) 3 times per week for 4 weeks; highest response time point vs sun-unexposed non-AK skin.
Source text: as §10, §11, §12, §13

In another assay the test system is TLR9. Briefly: TLR9 expression in actinic keratosis lesion biopsies, phase II study. The format is in vivo, human. Particulars: AK lesion, 5% cream (ALDARA) 3 times per week for 4 weeks; highest response time point vs sun-unexposed non-AK skin.
Source text: as §10, §11, §12, §13

In a further assay the test system is TLR8. Briefly: TLR8 expression in actinic keratosis lesion biopsies, phase II study. The format is in vivo, human. As to conditions: AK lesion, 5% cream (ALDARA) 3 times per week for 4 weeks; highest response time point vs sun-unexposed non-AK skin.
Source text: as §10, §11, §12, §13

In another assay the test system is TLR10. Briefly: TLR10 expression in actinic keratosis lesion biopsies, phase II study. The format is in vivo, human. As to conditions: AK lesion, 5% cream (ALDARA) 3 times per week for 4 weeks; highest response time point vs sun-unexposed non-AK skin.
Source text: as §10, §11, §12, §13

Assay [7] concerns TLR7. Briefly: TLR7 expression in actinic keratosis lesion biopsies, phase II study. The format is in vivo, human. As to conditions: AK lesion, 5% cream (ALDARA) 3 times per week for 4 weeks; highest response time point vs sun-unexposed non-AK skin.
Source text: as §10, §11, §12, §13

In assay [8] the test system is TLR7 gene. Briefly: TLR7 gene expression in PBMCs (real-time PCR). The format is cell-based, Human. As to conditions: in vitro (FIG. 1, FIG. 3). The protocol:
as §1, §8, §9

In the case of `CCOCc1nc2c(N)nc3c(c2n1CC(C)(C)O)CCCC3` [IRM1, 4-amino-2-(ethoxymethyl)-α,α-dimethyl-6,7,8,9-tetrahydro-1H-imidazo[4,5-c]quinoline-1-ethanol], the “modulation of TLR3 gene expression” value with TLR3 gene [1] was “upregulates gene expression”; in the assay on TLR3 gene [3], “downregulated; also recorded: downregulates gene expression”. Besides, the “modulation of TLR5 gene expression” value in the assay on TLR5 gene is on record as “downregulated”. In addition, the “modulation of TLR8 gene expression” value with TLR8 gene was “higher and earlier peaks of gene expression”. The “modulation of expression from TLR6” value in the assay on TLR6 [2] is listed as “may downregulate expression”. For the same molecule, in the assay with TLR7 [4], the “modulation of expression from TLR7” value is “may downregulate expression”. Besides, the “modulation of TLR7 gene expression” value in the assay on TLR7 gene [5] was “downregulated”.

On to `CCCCc1nc2c(N)nc3ccccc3c2n1CCCCNS(C)(=O)=O` [IRM3, N-[4-(4-amino-2-butyl-1H-imidazo[4,5-c]quinolin-1-yl)butyl]methanesulfonamide], for which the figures for the “modulation of TLR3 gene expression” value with TLR3 gene [1] and in the assay with TLR3 gene [3] were “upregulate gene expression” and “do not significantly modulate gene expression”, respectively.

With `CC(C)Cn1cnc2c(N)nc3ccccc3c21` [IRM5, 1-(2-methylpropyl)-1H-imidazo[4,5-c]quinolin-4-amine], the “modulation of TLR3 gene expression” value with TLR3 gene [1] is “upregulate gene expression”; in the assay with TLR3 gene [3], “do not significantly modulate gene expression”. In addition, in the assay with TLR1, the “Median Fold Change - IRM5-treated (IRM-treated/Series C), TLR1” value amounted to 2.1 fold. The “Median Fold Change - IRM5-treated (IRM-treated/Series C), TLR6” value in the assay with TLR6 [6] is 1.9 fold. The “Median Fold Change - IRM5-treated (IRM-treated/Series C), TLR3” value with TLR3 came out at 1.5 fold. Further, the “Median Fold Change - IRM5-treated (IRM-treated/Series C), TLR9” value in the assay on TLR9 came to 15.2 fold. Besides, the “Median Fold Change - IRM5-treated (IRM-treated/Series C), TLR8” value in the assay with TLR8 was 2.4 fold. The “Median Fold Change - IRM5-treated (IRM-treated/Series C), TLR10” value with TLR10 came to 3.6 fold. Moreover, in the assay on TLR7 [7], the “Median Fold Change - IRM5-treated (IRM-treated/Series C), TLR7” value was found to be 4.9 fold.

Regarding `Cc1nc2c(N)nc3ccccc3c2n1CC(C)(C)O` [IRM6, 4-amino-α,α,2-trimethyl-1H-imidazo[4,5-c]quinoline-1-ethanol], the “modulation of TLR8 gene expression” value in the assay with TLR8 gene was “higher and earlier peaks of gene expression”.

Consider `CC(C)Cn1cnc2c(N)nc3cccnc3c21` [IRM7, 1-(2-methylpropyl)-1H-imidazo[4,5-c][1,5]naphthyridin-4-amine], for which the “modulation of TLR3 gene expression” value in the assay with TLR3 gene [1] is “little effect on gene expression”. In the assay on TLR8 gene, the “modulation of TLR8 gene expression” value is recorded as “little effect on gene expression”. In addition, the “modulation of TLR7 gene expression” value with TLR7 gene [8] is recorded as “little effect on gene expression”.

With `Cc1nc2c(N)nc3cccnc3c2n1CC(C)C` [IRM8, 2-methyl-1-(2-methylpropyl)-1H-imidazo[4,5-c][1,5]naphthyridin-4-amine], the “modulation of TLR8 gene expression” value in the assay on TLR8 gene was “higher and earlier peaks of gene expression”.
